Data on three molecules can be found in PMC5826148, “Whole-Cell Screen of Fragment Library Identifies Gut Microbiota Metabolite Indole Propionic Acid as Antitubercular” (Antimicrobial Agents and Chemotherapy, 2018).

In brackets after ≈: the same amount, converted by molar mass. Where two headings read alike, the source gives them in different places.

In series [1] the test system is M. tuberculosis H37Rv. Briefly: Bactericidal activity, CFU enumeration on agar after treatment. In kind it is cell-based, Mycobacterium tuberculosis. Conditions: M. tuberculosis, 1 mM, log CFU/ml reduction from initial inoculum.
A further series has as its system M. abscessus. Briefly: Spectrum of activity: M. abscessus growth inhibition. In kind it is cell-based. Conditions: 3 days, read-out: Antibacterial activity (MIC50) M. abscessus.
The next series relates to M. tuberculosis. Put plainly: Growth inhibition in acidic medium (pH 6.2). It counts as cell-based, Mycobacterium tuberculosis. The following applies: pH 6.2, read-out: Activity (MIC50) in acidic medium (pH 6.2).
In another series the test system is HepG2 cells. Put plainly: Cytotoxicity assay, HepG2 cells (CellTiter 96 AQueous One). Conditions: read-out: Cytotoxicity HepG2 cells CC50; 24 h.
The test system of series [2] is M. tuberculosis H37Rv. Briefly: M. tuberculosis growth inhibition dose-response (MIC50), turbidity readout. It counts as cell-based, Mycobacterium tuberculosis. The following applies: H37Rv, 10 days, read-out: Antibacterial activity (MIC50) M. tuberculosis.
The subject of series [3] is human red blood cells (RBCs). Briefly: Red blood cell lysis assay. The following applies: hemolysis.
Another series concerns M. bovis BCG Pasteur. Briefly: microbe, parasite or virus in culture. It counts as cell-based.
For another series, the system named is THP-1 cells. Briefly: Cytotoxicity assay, THP-1 cells (CellTiter 96 AQueous One). The following applies: read-out: Cytotoxicity THP-1 cells CC50; 24 h.
The test system of a further series is Escherichia coli. Briefly: Spectrum of activity: E. coli growth inhibition. It counts as cell-based. Conditions: LB medium, overnight, read-out: Antibacterial activity (MIC50) E. coli.
Another series concerns Staphylococcus aureus. Briefly: Spectrum of activity: S. aureus growth inhibition. It counts as cell-based. Conditions: LB medium, overnight, read-out: Antibacterial activity (MIC50) S. aureus.
Another series relates to M. smegmatis. Put plainly: Spectrum of activity: M. smegmatis growth inhibition. In kind it is cell-based. Conditions: 1 day, read-out: Antibacterial activity (MIC50) M. smegmatis.
The test system of another series is M. avium. Put plainly: Spectrum of activity: M. avium growth inhibition. In kind it is cell-based. Conditions: 4 days, read-out: Antibacterial activity (MIC50) M. avium.
Series [4] in a line: Endogenous plasma levels of IPA in naive mice.
The test system of the next series is mice. The following applies: 100 mg/kg oral on three consecutive days, monitored 7 days.
In series [5] the test system is M. tuberculosis H37Rv. Briefly: Mouse model of acute M. tuberculosis infection. Conditions: for Lungs CFU log10, mean difference from drug-free control / Spleen CFU log10, mean difference from drug-free control: Day 42, IPA 100 mg/kg, oral gavage 6 days/week, 4 weeks.
On the set-up of series [6]: method as in PMID 24563545. Conditions: cited from earlier work.
A short description of series [7]: Cytotoxicity assay, HepG2 cells (CellTiter 96 AQueous One). Conditions: human, HepG2 cells.
Series [8] is described as follows: Pharmacokinetic study in uninfected CD-1 mice. The following applies: for AUC(0-t) / Cmax: Ave +/- SD, n=3.
Series [9] in a line: Cytotoxicity assay, THP-1 cells (CellTiter 96 AQueous One). The following applies: human.

As for `NC(=S)COc1cccc(Cl)c1` [Fragment F13, 2-(3-Chlorophenoxy) ethanethioamide], the “Bactericidal activity (log reduction) at 1 mM” value in the series with M. tuberculosis H37Rv [1] came to 0.90 log reduction. The MIC50 was 289 µM (≈ 58.3 µg/mL) in the series with M. abscessus; 75 µM (≈ 15.1 µg/mL) in the series with M. tuberculosis; 211 µM (≈ 42.6 µg/mL) in the series with M. tuberculosis H37Rv [2]; over 500 µM in the series with Escherichia coli; over 500 µM in the series on Staphylococcus aureus; 409 µM (≈ 82.5 µg/mL) in the series with M. smegmatis. In the series with M. avium, the MIC50 stood at 387 µM (≈ 78 µg/mL). Further, the CC50 in the series on HepG2 cells came to 467 µM; in the series with THP-1 cells it was 656 µM. Also, the “RBCs HC50” value in series [3] was found to be 904 µM. In addition, in the series with M. bovis BCG Pasteur, the “Antibacterial activity (MIC50) M. bovis BCG” value was over 500 µM.

On to `O=C(O)CCc1c[nH]c2ccccc12` [Fragment F1], for which the “Endogenous plasma level, Average” value in series [4] (time 0.25 h) turned out to be 589 ng/mL; in series [4] (time 1 h) it was 514 ng/mL; in series [4] (time 3 h) it was 455 ng/mL; in [4] (time 5 h), 404 ng/mL; in series [4] (time 8 h), 629 ng/mL. For the same molecule, the log reduction at 1000 µM with M. tuberculosis H37Rv [1] (Mycobacterium tuberculosis, H37RV, read-out: Bactericidal activity (log reduction) at 1 mM) was 1.76. In addition, in the series on mice, the “Acute toxicity: behavior and gross pathology of major organs” value is recorded as “None of the mice showed abnormal behavior”. Further, the MIC50 was over 500 µM with M. abscessus (Mycobacteroides abscessus, 72 h); 62 µM (≈ 11.7 µg/mL) in the series with M. tuberculosis (Mycobacterium tuberculosis); 68 µM (≈ 12.9 µg/mL) with M. tuberculosis H37Rv [2] (Mycobacterium tuberculosis, 240 h); 98 µM (≈ 18.5 µg/mL) in the series with M. bovis BCG Pasteur (Mycobacterium tuberculosis variant bovis BCG, BCG, read-out: Antibacterial activity (MIC50) M. bovis BCG); over 500 µM in the series on Escherichia coli (Escherichia coli); over 500 µM in the series with Staphylococcus aureus (Staphylococcus aureus). For the same molecule, the MIC50 in the series with M. smegmatis (Mycolicibacterium smegmatis, 24 h) is 477 µM (≈ 90.3 µg/mL); in the series with M. avium (Mycobacterium avium, 96 h), 119 µM (≈ 22.5 µg/mL). Moreover, the “reduction of bacterial load in the spleen versus untreated mice” value with M. tuberculosis H37Rv [5] (100 mg/kg oral, 6 days/week for 4 weeks) was 7 fold. Also, the “adverse events or abnormal behavior over the course of drug treatment” value with M. tuberculosis H37Rv [5] (100 mg/kg, six consecutive days per week for 4 weeks, infected mice) was “None of the animals showed signs of adverse events or abnormal behavior”. In addition, in the series with M. tuberculosis H37Rv [5] (INH 25 mg/kg), the “Lungs CFU log10, mean difference from drug-free control” value was -0.28 log10 CFU. In addition, in the series on M. tuberculosis H37Rv [5] (INH 25 mg/kg), the “Spleen CFU log10, mean difference from drug-free control” value is -0.82 log10 CFU. In addition, the “logarithm of partition coefficient between n-octanol and water” value in [6] was 2.15. The CC50 at 24 h in series [7] and in series [9] was over 1000 µM throughout. In addition, the “time plasma levels above the MIC50” value in [8] (100 mg/kg oral) is reported as “more than 50 % of the dosing interval”. In series [8] (CD-1, mouse, plasma, iv, 5 mg/kg), this molecule showed a Vd of 0.25 L/kg. Further, the AUC(0-t) was 72 ± 3 µg·h/mL in [8] (CD-1, mouse, plasma, iv, 5 mg/kg, AUC[0-8], Intravenous 5 mg/kg); 315 ± 88 µg·h/mL in series [8] (CD-1, mouse, plasma, po, 100 mg/kg, AUC[0-8], Oral 100 mg/kg in CMC (suspension)); 312 ± 59 µg·h/mL in [8] (CD-1, mouse, plasma, po, 100 mg/kg, AUC[0-8], Oral 100 mg/kg in PEG (solution)); 442 ± 271 µg·h/mL in series [8] (CD-1, mouse, plasma, po, 100 mg/kg, AUC[0-24], Oral 100 mg/kg in CMC (suspension)); 471 ± 129 µg·h/mL in series [8] (CD-1, mouse, plasma, po, 100 mg/kg, AUC[0-24], Oral 100 mg/kg in PEG (solution)). Besides, the Cmax was found to be 67 ± 28 µg/mL in [8] (CD-1, mouse, plasma, po, 100 mg/kg, Oral 100 mg/kg in CMC (suspension)) and 118 ± 10 µg/mL in [8] (CD-1, mouse, plasma, po, 100 mg/kg, Oral 100 mg/kg in PEG (solution)). For the same molecule, the bioavailability was 30.8% in series [8] (CD-1, mouse, plasma, po, 100 mg/kg, F (oral bioavailability), Oral 100 mg/kg in CMC (suspension)); 32.9% in series [8] (CD-1, mouse, plasma, po, 100 mg/kg, F (oral bioavailability), Oral 100 mg/kg in PEG (solution)); 30 to 33% in [8] (CD-1, mouse, plasma, po, 100 mg/kg, oral bioavailability, 100 mg/kg oral). Also, the “RBCs HC50” value in series [3] is given as >1,000 μM.

For `NNC(=O)c1ccncc1` [INH, isoniazid, reference compound], in the series with M. tuberculosis H37Rv [5] (INH 25 mg/kg), the “Lungs CFU log10, mean difference from drug-free control” value was -3.82 log10 CFU and the “Spleen CFU log10, mean difference from drug-free control” value is given as -5.49 log10 CFU. In addition, in the series on M. tuberculosis H37Rv [5] (INH 25 mg/kg, 4 weeks of monotherapy), the “effect on bacterial load of spleen” value is “sterilized the spleen”.
